Counter-ions that a name gives are not always drawn.
Legend:
[1] = target: C-type lectin domain family 4 member K (Homo sapiens, UniProt Q9UJ71); experiment: Binding affinity to Langerin (unknown origin) by [19F] R2-filtered NMR assay
[2] = target: T1, C-type lectin domain family 4 member M (Homo sapiens) (UniProt Q9H2X3); experiment: Inhibition of DC-SIGN (unknown origin)- mediated fluorescent probe binding at 0.1 mM relative to control
T1 sequence (whole entry): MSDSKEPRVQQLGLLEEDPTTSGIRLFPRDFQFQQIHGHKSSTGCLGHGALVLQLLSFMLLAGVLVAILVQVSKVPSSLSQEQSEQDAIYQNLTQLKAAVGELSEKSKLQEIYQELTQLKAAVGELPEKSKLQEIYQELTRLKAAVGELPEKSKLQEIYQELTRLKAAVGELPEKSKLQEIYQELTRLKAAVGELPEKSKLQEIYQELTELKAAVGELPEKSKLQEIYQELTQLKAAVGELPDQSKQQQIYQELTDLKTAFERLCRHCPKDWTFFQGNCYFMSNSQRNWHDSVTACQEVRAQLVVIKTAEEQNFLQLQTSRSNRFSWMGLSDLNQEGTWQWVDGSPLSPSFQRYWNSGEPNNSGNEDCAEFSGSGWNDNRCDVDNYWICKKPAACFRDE

[3] = target: T1, C-type lectin domain family 4 member M (Homo sapiens); experiment: Inhibition of DC-SIGN (unknown origin)- mediated fluorescent probe binding at 1 mM relative to control
[4] = system: Human immunodeficiency virus 1; experiment: Antiviral activity against HIV-1 in human CD4+Th cells expressing DC-SIGN assessed as inhibition of viral infection; type: functional, organism-based; conditions: Human immunodeficiency virus 1, CD4+ve Th
Ebolavirus = experiment: Antiviral activity against envelope pseudotyped Ebola virus in human Jurkat cells expressing DC-SIGN assessed as inhibition of viral infection; type: functional, organism-based
[5] = Inhibition of DC-SIGN (unknown origin)/ SARS CoV-2 spike glycoprotein interaction
[6] = target: T2, C-type lectin domain family 4 member K (Mus musculus, UniProt Q8VBX4); experiment: Inhibition of mannan binding to mouse Langerin extracellular domain assessed as apparent dissociation constant by ELLA assay; conditions: read-out: Kd(app)
T2 sequence (Q8VBX4 whole entry): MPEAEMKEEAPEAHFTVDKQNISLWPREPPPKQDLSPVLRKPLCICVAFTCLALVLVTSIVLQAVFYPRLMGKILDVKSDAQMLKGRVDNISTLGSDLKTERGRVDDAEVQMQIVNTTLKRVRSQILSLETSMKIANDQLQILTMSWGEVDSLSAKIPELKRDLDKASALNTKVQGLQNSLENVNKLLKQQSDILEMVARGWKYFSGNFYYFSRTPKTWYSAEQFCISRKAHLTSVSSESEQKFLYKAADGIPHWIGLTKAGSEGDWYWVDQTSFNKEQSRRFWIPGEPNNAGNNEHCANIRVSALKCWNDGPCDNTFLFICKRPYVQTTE

[7] = target: T2, C-type lectin domain family 4 member K; experiment: Inhibition of mannan binding to mouse Langerin extracellular domain by ELLA assay

Sequence of C-type lectin domain family 4 member K (Homo sapiens, UniProt Q9UJ71) (Q9UJ71 whole entry, the tested form may be a part): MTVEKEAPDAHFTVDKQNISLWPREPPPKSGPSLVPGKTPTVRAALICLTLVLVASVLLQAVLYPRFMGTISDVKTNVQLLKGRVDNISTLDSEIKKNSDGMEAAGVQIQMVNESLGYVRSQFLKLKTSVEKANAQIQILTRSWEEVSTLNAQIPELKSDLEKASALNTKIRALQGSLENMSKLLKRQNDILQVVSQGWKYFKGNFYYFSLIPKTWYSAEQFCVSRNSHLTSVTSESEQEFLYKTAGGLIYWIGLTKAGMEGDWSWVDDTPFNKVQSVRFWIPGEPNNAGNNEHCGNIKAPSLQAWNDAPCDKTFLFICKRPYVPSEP

CC(=O)NCCO[C@@H]1O[C@H](CO)[C@@H](O)[C@H](O)[C@H]1NS(=O)(=O)c1ccc(C)cc1
Ki [1]: 320 µM

NC(=O)c1ccc(CCCC2Nc3ccc(C(=O)N4CCN(c5ncccn5)CC4)cc3NC2=O)cc1 (stereo unspecified)
inhibition [2]: 53% | inhibition [3]: 77%

[N-]=[N+]=NCCO[C@H]1C[C@H](C(=O)NCc2ccc(CO)cc2)[C@@H](C(=O)NCc2ccc(CO)cc2)C[C@@H]1O[C@H]1O[C@H](CO)[C@@H](O)[C@H](O)[C@@H]1O
IC50 [4]: 0.024 µM | IC50 (Ebolavirus; Orthoebolavirus, Jurkat): < 0.06 µM

C#CCO[C@H]1O[C@H](CO)[C@@H](O)[C@H](O)[C@@H]1NC(C)=O
Ki [1]: 48000 µM

C#CCO[C@H]1O[C@H](CO)[C@@H](O)[C@H](O)[C@@H]1NC(=O)Cc1nnn[nH]1
Ki [1]: 7600 µM

O=C(NCc1ccc(CO)cc1)[C@H]1C[C@H](OCCn2cc(COCCC(CCOCCn3cc(-c4cc(OCCOCCO)c(C#Cc5cc(OCCOCCO)c(C#Cc6cc(OCCOCCO)c(-c7cn(CCOCCC(CCOCc8cn(CCO[C@H]9C[C@H](C(=O)NCc%10ccc(CO)cc%10)[C@@H](C(=O)NCc%10ccc(CO)cc%10)C[C@@H]9O[C@H]9O[C@H](CO)[C@@H](O)[C@H](O)[C@@H]9O)nn8)(CCOCc8cn(CCO[C@H]9C[C@H](C(=O)NCc%10ccc(CO)cc%10)[C@@H](C(=O)NCc%10ccc(CO)cc%10)C[C@@H]9O[C@H]9O[C@H](CO)[C@@H](O)[C@H](O)[C@@H]9O)nn8)CCOCc8cn(CCO[C@H]9C[C@H](C(=O)NCc%10ccc(CO)cc%10)[C@@H](C(=O)NCc%10ccc(CO)cc%10)C[C@@H]9O[C@H]9O[C@H](CO)[C@@H](O)[C@H](O)[C@@H]9O)nn8)nn7)cc6OCCOCCO)cc5OCCOCCO)cc4OCCOCCO)nn3)(CCOCc3cn(CCO[C@H]4C[C@H](C(=O)NCc5ccc(CO)cc5)[C@@H](C(=O)NCc5ccc(CO)cc5)C[C@@H]4O[C@H]4O[C@H](CO)[C@@H](O)[C@H](O)[C@@H]4O)nn3)CCOCc3cn(CCO[C@H]4C[C@H](C(=O)NCc5ccc(CO)cc5)[C@@H](C(=O)NCc5ccc(CO)cc5)C[C@@H]4O[C@H]4O[C@H](CO)[C@@H](O)[C@H](O)[C@@H]4O)nn3)nn2)[C@@H](O[C@H]2O[C@H](CO)[C@@H](O)[C@H](O)[C@@H]2O)C[C@@H]1C(=O)NCc1ccc(CO)cc1
IC50 [5]: 9.6 µM

O=C(NCCc1cn2c(n1)SCC2)c1cnc2sccn2c1=O
Kd [6]: 450 µM | IC50 [7]: 50 µM

N[C@H]1C(O)O[C@H](CO)[C@@H](O)[C@@H]1O (stereo partly specified) [GLUCOSAMINE SULFATE]
Ki [1]: 1400 µM

C#CCO[C@H]1O[C@H](CO)[C@@H](O)[C@H](O)[C@@H]1NC(=O)CS(=O)(=O)O
Ki [1]: 1300 µM

NS(=O)(=O)c1ccc(CCCC2Nc3ccc(C(=O)N4CCN(c5ccncc5)CC4)cc3NC2=O)cc1 (stereo unspecified)
inhibition [2]: 79% | inhibition [3]: 92%

COC(=O)[C@H]1C[C@H](OCCN)[C@@H](O[C@H]2O[C@H](CO)[C@@H](O)[C@H](O)[C@@H]2O)C[C@@H]1C(=O)OC
IC50 [4]: 0.024 µM | IC50 (Ebolavirus; jurkat): < 0.06 µM

From ChEMBL document CHEMBL5233207, “Medicinal chemistry of the myeloid C-type lectin receptors Mincle, Langerin, and DC-SIGN” (RSC Med Chem, 2021)
